Reference: PubChem BioAssay (NCI)
Several values for one entry are separate records, joined by “and”; a condition that tells them apart may be missing. Identical values can stand only once.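 The compound was tested at five concentrations on cells cultured in 96-well plates, with a 48-hour exposure period. Abbreviation: GI50, concentration required for 50% inhibition of growth. TGI is the concentration that stops growth completely.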

test system: DMS 273 small cell lung; assay: DTP human tumour cell line panel, 48 h

| Compound | TGI | GI50 |
| --- | --- | --- |
| COC(=O)c1c/c(=N\NC(=O)CC(=O)Nc2ccccc2OC)c2ccccc2o1 | > 100 µM |  |
| NC(CCC(=O)NC(CSSCCCCS(=O)O)C(=O)NCC(=O)O)C(=O)O (stereo not drawn) | > 100 µM |  |
| COC12C=C(C)C(CC1)CC2C(=O)O (stereo not drawn) | > 100 µM |  |
| OCC(O)CC[CH2][Sn]([Br])([c]1ccccc1)[c]1ccccc1 (stereo not drawn) | > 100 µM | > 100 µM |
| CCc1ccc(/C=C\c2cc(OC)c(OC)c(OC)c2)cc1 | 0.994 µM |  |
| COc1ccc(C2=CC3CCC2C3)cc1 (stereo not drawn) | > 100 µM |  |
| COc1ccc(/C=C/CN(C)CCc2ccccc2)cc1OC | > 100 µM |  |
| [Cl-].[Dy+3].[O-]/N=C(\c1ccccc1)c1ccccn1.[O-]/N=C(\c1ccccc1)c1ccccn1.[O-]/N=C(\c1ccccc1)c1ccccn1 | > 100 µM | 29.8 µM |
| NC(=O)C(=O)N/N=C(\CC1(O)C(=O)Nc2ccccc21)c1ccc2ccccc2c1 (stereo not drawn) | 80.5 µM |  |
| Cc1cc2c(cc1C)[n+](=O)c(C(=O)C/C(=N/NC(=O)CC#N)C(=O)Nc1ccccc1C(F)(F)F)c(C)n2[O-] | > 100 µM |  |
| COC(=O)/C(=N/NC(=O)C[N+](C)(C)C)C(C(=O)OC)C(=O)C(=O)Nc1ccc(F)cc1 (stereo not drawn) | > 100 µM |  |
| O=C(c1ccccc1)c1nnc(C(=O)c2ccccc2)nn1 | > 344 µM |  |
| Brc1cccc(C=NC23CC4CC(CC(C4)C2)C3)c1 | > 100 µM |  |
| CCC[CH2][Sn]([CH2]CCC)([O]C(=O)c1cccnc1SC)[O]C(=O)c1cccnc1SC | 2.26 µM | 1.07 µM |
| O=C1O[C@@H](c2ccc3c(c2)OCO3)C2C(=O)O[C@@H](c3ccc4c(c3)OCO4)C12 (stereo partly drawn) | > 100 µM |  |
| O=C1CCC(=O)N2CCCCN12 | > 100 µM |  |
| CC(C)C(=O)NC(=S)Nc1ccc([N+](=O)[O-])cc1C#N | > 100 µM |  |
| C/C(CC(=O)Nc1cc(Cl)c(Cl)cc1Cl)=N\NC(N)=O | > 100 µM |  |
| O=C(O)CNS(=O)(=O)c1ccc(NCc2ccccc2)cc1 | > 100 µM |  |
| O=C1CCC2(c3ccc(F)cc3)Nc3cc(Cl)ccc3N12 (stereo not drawn) | > 100 µM |  |

test system: M14 melanoma; assay: DTP human tumour cell line panel, 48 h

| Compound | TGI | GI50 |
| --- | --- | --- |
| COC(=O)c1c/c(=N\NC(=O)CC(=O)Nc2ccccc2OC)c2ccccc2o1 | > 100 µM |  |
| NC(CCC(=O)NC(CSSCCCCS(=O)O)C(=O)NCC(=O)O)C(=O)O (stereo not drawn) | > 100 µM |  |
| COC12C=C(C)C(CC1)CC2C(=O)O (stereo not drawn) | > 100 µM |  |
| OCC(O)CC[CH2][Sn]([Br])([c]1ccccc1)[c]1ccccc1 (stereo not drawn) | > 100 µM | > 100 µM |
| CCc1ccc(/C=C\c2cc(OC)c(OC)c(OC)c2)cc1 | 19.9 µM | 0.0168 µM |
| O=c1c2cc([N+](=O)[O-])ccc2sc2ccsc12 | > 100 µM |  |
| COc1ccc(C2=CC3CCC2C3)cc1 (stereo not drawn) | > 100 µM |  |
| [Cl-].[Dy+3].[O-]/N=C(\c1ccccc1)c1ccccn1.[O-]/N=C(\c1ccccc1)c1ccccn1.[O-]/N=C(\c1ccccc1)c1ccccn1 | 43.1 µM | 22.1 µM |
| NC(=O)C(=O)N/N=C(\CC1(O)C(=O)Nc2ccccc21)c1ccc2ccccc2c1 (stereo not drawn) | > 100 µM |  |
| Cc1cc2c(cc1C)[n+](=O)c(C(=O)C/C(=N/NC(=O)CC#N)C(=O)Nc1ccccc1C(F)(F)F)c(C)n2[O-] | > 100 µM |  |
| COC(=O)/C(=N/NC(=O)C[N+](C)(C)C)C(C(=O)OC)C(=O)C(=O)Nc1ccc(F)cc1 (stereo not drawn) | > 100 µM |  |
| FC(F)(F)c1cccc(Nc2nccc(-c3cnn4nc(-c5ccccc5)ccc34)n2)c1 | 24.5 µM | 12 µM |
| CC[C@@H]1C(=O)N(C)c2cnc(Nc3ccc(C(=O)NC4CCN(C)CC4)cc3OC)nc2N1C1CCCC1 | > 4.22 µM and 2.37 µM | 0.00384 µM and < 0.01 µM |
| C=C1C(=O)O[C@H]2[C@H]1CC/C(COC(=O)c1ccc3ccccc3c1)=C\CC[C@@]1(C)O[C@@H]21 | 2.68 µM | 1.13 µM |
| O=C(c1ccccc1)c1nnc(C(=O)c2ccccc2)nn1 | > 344 µM |  |
| Brc1cccc(C=NC23CC4CC(CC(C4)C2)C3)c1 | > 100 µM |  |
| CC(C)c1nc(CN(C)C(=O)N[C@H](C(=O)N[C@@H](Cc2ccccc2)C[C@H](O)[C@H](Cc2ccccc2)NC(=O)OCc2cncs2)C(C)C)cs1 | 41.7 µM | 18 µM |
| CCC[CH2][Sn]([CH2]CCC)([O]C(=O)c1cccnc1SC)[O]C(=O)c1cccnc1SC | 2.29 µM | 1.04 µM |
| Oc1ccc(CN2CCC(N3CCCCC3)CC2)c2cccnc12 | > 100 µM | 5.75 µM |
| CC[C@@]1(O)C(=O)OCc2c1cc1n(c2=O)Cc2c-1nc1cc3c(cc1c2CCl)OCO3 | 0.403 µM | 0.032 µM |
